Laboratory results reported in patent US8425918B2, “Use of EDTA and its derivatives for prevention and treatment of bacterial intestinal diseases of pigs and for increasing the effects of antibiotics exerted in such diseases” (Pharmatéka Gyártó´és Kereskedelmi BT, priority 2007, dated 2013).

Assays:
Brachyspira infection [1] = assay: Example 5.4: lincomycin-resistant animals, lincomycin therapy maintained plus EDTA Na2 in drinking water; assay type: in vivo, pigs
Experimental: (§1) Testing of Compositions Comprising EDTA on Pigs Suffering from Bloody Diarrhoea (Brachyspira Infection)
In a part of the lincomycin-resistant animals belonging to the livestock according to Example 5.3, no treatment with another antibiotic was performed, but lincomycin therapy was maintained and simultaneously drinking water comprising 60 ppm of EDTA Na2 was added to the animals.

Brachyspira infection [2] = assay: Example 5.3: lincomycin nourishment with or without EDTA Na2 salt, livestock with bloody diarrhoea partly resistant to lincomycin; assay type: in vivo, pigs
Excerpt: as §1
At a pig farm infected with the pathogen a nourishment comprising 110 ppm of lincomycin was fed with the livestock suffering from bloody diarrhoea. […] The livestock was separated proportionally, and in the test group 240 ppm of EDTA Na2 salt was admixed to the nourishment, utilizing the premix according to Example 1.

Brachyspira infection [3] = assay: Example 5.1: prevention of bloody diarrhoea, EDTA Na2 salt in the fodder on an infected pig farm; assay type: in vivo, pigs; details: 240 ppm EDTA Na2 salt in fodder via premix of Example 1
Excerpt: as §1
On a pig farm infected with the pathogen 3 test groups of 20 animals each and one control group of 20 animals were formed from 90 days old piglets. The fodder of the animals belonging to the test groups was complemented throughout the test period (which lasted to slaughtering) with 240 ppm of EDTA Na2 salt utilizing the premix as described in Example 1.

Brachyspira infection [4] = assay: Example 5.5: prevention in weaned piglets with complemented nourishment; assay type: in vivo, pigs; details: test group: nourishment with 240 ppm EDTA Na2, 22 ppm essential oils (1:1 oregano oil and thyme oil) and 100 ppm tannic acid
Excerpt: Testing of Compositions Comprising EDTA on Pigs Suffering from Bloody Diarrhoea (Brachyspira Infection) At a pig farm with frequently occurring bloody diarrhoea three groups were formed randomly from weaned piglets at switching to solid nourishment. In the first group (test group) the animals were fed continuously with a nourishment comprising 240 ppm of EDTA Na2, 22 ppm of essential oils (1:1 mixture of oregano oil and thyme oil) and 100 ppm of tannic acid. In the second group (control group 1) the animals were fed continuously with a nourishment comprising essential oils and tannic acid in the above amounts but free of EDTA Na2. In the third group (control group 2) no EDTA Na2, essential oils or tannic acid were added to the nourishment of the animals. After a certain period of time soft faeces and then bloody diarrhoea appeared in the animals of control group 2 (fed with a nourishment without completion). Bacteria of Brachospira type were detected in the faeces.

Brachyspira infection [5] = assay: Example 5.2: treatment of pigs suffering from bloody diarrhoea, EDTA Na2 in drinking water; assay type: in vivo
Experimental: as §1
Pigs suffering from bloody diarrhoea, husbanded on the farm according to Example 5.1, were treated with EDTA Na2 in such a way that 200 ppm of EDTA Na2 were dissolved in the drinking water of the animals. […] In the control group where on the day following the cease of diarrhoea the animals were returned to drinking of pure water bloody diarrhoea reappeared after 4 days.

Structure (SMILES) | pathogenic bacteria in the faeces (Brachyspira infection [1]; 60 ppm EDTA Na2 in drinking water with lincomycin) | cessation of diarrhoea (Brachyspira infection [1]; 60 ppm EDTA Na2 in drinking water, lincomycin therapy maintained, lincomycin-resistant animals) | reoccurrence of diarrhoea (Brachyspira infection [1]; after terminating lincomycin, EDTA Na2 in drinking water continued) | cessation of bloody diarrhoea (Brachyspira infection [2]; 240 ppm EDTA Na2 salt (premix of Example 1) admixed to nourishment comprising 110 ppm lincomycin) | later occurrence of bloody diarrhoea (Brachyspira infection [2]; continued feeding with fodder comprising EDTA Na2 salt) | appearance of bloody diarrhoea (Brachyspira infection [3]; 90 days old piglets, until slaughtering) | need for antibiotic treatment (Brachyspira infection [3]; compared with the other animals of the farm) | abnormal biological symptoms (soft faeces, bloody diarrhoea) (Brachyspira infection [4]) | cessation of bloody diarrhoea (Brachyspira infection [5]; 200 ppm EDTA Na2 dissolved in drinking water) | time to reappearance of bloody diarrhoea after withdrawal (Brachyspira infection [5]; animals returned to pure water on the day following the cease of diarrhoea) [days] | reoccurrence of bloody diarrhoea (Brachyspira infection [5]; while 200 ppm EDTA Na2 was maintained in the drinking water) | persistence of bloody diarrhoea (Brachyspira infection [2]; control group: nourishment comprising 110 ppm lincomycin without EDTA Na2 salt)
O=C([O-])CN(CCN(CC(=O)[O-])CC(=O)O)CC(=O)O.[Na+].[Na+] [EDTA Na2 salt] | No pathogenic bacteria could be detected | ceased completely within some days | did not reoccur | completely ceased on the third day | no bloody diarrhoea occurred | No bloody diarrhoea appeared | no antibiotic treatment of the animals of the test groups was required | no abnormal biological symptom could be observed | ceased on the third day | 4 | did not reoccur | 
CCC[C@@H]1C[C@@H](C(=O)N[C@@H]([C@H]2O[C@H](SC)[C@H](O)[C@@H](O)[C@H]2O)[C@@H](C)O)N(C)C1 [lincomycin, reference compound] |  |  |  |  |  |  |  |  |  |  |  | bloody diarrhoea still persisted
